Measurements published in patent US6090786A, “Serine proteases, their activity and their synthetic inhibitors” (priority 1994, dated 2000).

Columns and labels:
[1] = Functional stability of DPPIV inhibitors in the reaction medium (buffer); assay type: physicochemical; conditions: 50 mM TRIS buffer pH 8.3, 37° C.
Protocol: (§1) To determine the functional stability of the inhibitors in the reaction medium, a 10 mM stock solution in DMSO was diluted 50-fold in 50 mM TRIS buffer pH 8.3 and incubated at 37° C. To determine the functional stability in plasma, a 50 mM stock solution in DMSO was diluted 50-fold in fresh or freshly frozen citrated plasma from a healthy donor and incubated at 37° C. At specific time intervals an aliquot was withdrawn, added to an equal volume of DPPIV diluted in buffer or to an equal volume of plasma and the kinetics of inactivation were determined as described under b). The reduction in observed pseudo-first order rate constant is a measure for the amount of functional inhibitor lost during the incubation and allowed to estimate the half-life of the inhibitors in buffer and plasma. The following table lists the results.

[2] = Functional stability of DPPIV inhibitors in human citrated plasma; assay type: in vitro ADME; conditions: 37° C.
Protocol: as §1

[3] = In vivo testing in rabbits, single intravenous injection
Protocol: In order to test the effect of the inhibitors in vivo rabbits were injected with the inhibitor and their DPPIV activity was tested using Gly-Pro-4-Methoxy-2-naphthylamide as the substrate.
4 Rabbits received a single 5 ml intravenous-(ear vein) injection of physiological saline cobtaining 0 (control), 1 mg, 5 mg and 10 mg AB 3, respectively. Blood samples were taken from the central ear artery 5 min before injection and at different points of time, directly after the injection, after 4 hrs and after 1, 2, 3, 6 and 13 days.
Counts of white and red blood cells and platelets, serum DPPIV activity and serum bilirubin, GOT, GPT, GT, LDH, creatinine, Na, K, CK and urea were evaluated.

SMILES: Cl.O=C([C@@H]1CCCN1)N1CCCC1P(=O)(Oc1ccccc1)Oc1ccccc1 (stereo partly drawn) [Pro-Pro^P -(OPh)2, Diphenyl (S,R)-1-[(S)-prolyl]pyrrolidine-2-phophonate hydrochloride]
- t1/2 in buffer [1]: 3.5 ± 0.1 h
- t1/2 in plasma [2]: 4.1 ± 0.3 h
- death of the animal ([3]; rabbit receiving 10 mg i.v.): died after 11 days
- biochemical and hematological parameters ([3]; rabbit receiving 10 mg i.v., at day 6): normal
- cell counts (white and red blood cells, platelets) and serum biochemical parameters ([3]; rabbits, single i.v. injection of 1 mg, 5 mg or 10 mg, up to 13 days, DPPIV enzyme activity excepted): No differences
